Experiment: Determination of the thickener performance in mixture A
Format: physicochemical
Settings: for Viscosity: 1% by weight added to mixture A (15% by weight in water, sodium laureth-2 sulfate:cocobetain 8:2), mixture A alone 135; for thickener performance (in words): 1% by weight in mixture A, summary of Table 1
From the text: Using Genapol® LRO (sodium laureth-2 sulfate, 27% by weight in water) and Genagen® KB (cocobetain, 30% by weight in water) and additionally water, a 15% by weight mixture in water comprising the two surfactants in a weight ratio of 8:2 (hereinbelow referred to as “mixture A”) is obtained.

Compound	Viscosity	thickener performance (in words)
isosorbide dicaprylate	2390 mPa · s	significant thickening
O[C@@H]1CO[C@H]2[C@@H]1OC[C@@H]2O [isosorbide]	160 mPa · s	not worth mentioning
